The values that follow come from US20250195499A1, “METHODS FOR PREVENTING OR TREATING CEREBROVASCULAR DISEASES OR TISSUE ISCHEMIA-REPERFUSION INJURY” (CO., LTD. OF JEAMOON TECHNOLOGY, priority 2022, published 2025).

“Also recorded” adds a separate entry of the source.

The test system of data set [1] is MCAO cerebral ischemia-reperfusion (IR) mice. Description: MCAO cerebral ischemia-reperfusion (IR) mouse model, infarct area by TTC staining. In kind it is in vivo, C57BL/6J mice. Conditions: for Infarct area percentage (%) X ± SD: IR mice, po, QD, from 4 days before surgery, 1 h ischemia, 24 h reperfusion, IR model group 48.42 ± 24.21; for Infarcted area compared with the IR group mice (in words): oral administration. As for the experimental part: A surgical incision was made in the neck to expose a left common carotid artery (CCA), an internal carotid artery (ICA), and an external carotid artery (ECA). A pre-made filament was inserted through the external carotid artery into the internal carotid artery and advanced to a middle cerebral artery (MCA), causing ischemia in a left brain region. After 60 minutes of occlusion, the filament was removed to achieve reperfusion in the left brain region. FIG. 5 is a schematic diagram illustrating the MCAO cerebral ischemia model using the intraluminal filament approach.
1. Animal anesthesia and neck preparation: the mice were anesthetized by inhalation of 2% isoflurane gas. After muscle relaxation, the four limbs of the mice were fixed to an operating table with 3M medical tape. Depilatory cream was used to remove the hair on a side of the neck, and erythromycin eye ointment was applied to the eyeballs of the mice to prevent eye dryness.
2. Surgical incision: the neck skin was disinfected sequentially with iodophor and 75% alcohol cotton balls. A 3 cm incision was made along the midline of the neck. Under a stereomicroscope, the subcutaneous tissue and fat were bluntly dissected, the superficial fascia and platysma were incised to expose the deep fascia of the neck and the anterior tracheal muscle. After the anterior tracheal muscle was exposed, the deep cervical fascia was torn along an anterior edge of the left sternocleidomastoideole, exposing the sternocleidomastoideole, which was then pulled posteriorly. The dissection continued downward along the sternocleidomastoideole until the deeper carotid sheath was exposed.
3. Vessel exposure and isolation: while avoiding compression of the mouse trachea, the carotid sheath was incised, and the common carotid artery (CCA) was isolated, taking care not to damage the vagus nerve running alongside in the sheath, as simulation or injury to the nerve may cause sudden respiratory arrest in the animal. The dissection continued upward along the common carotid artery, and the external carotid artery was identified at an upper edge of the thyroid cartilage. […] A proximal end of the external carotid artery was gently lifted to expose the internal carotid artery located laterally and inferiorly.
4. […] The internal carotid artery was temporarily clamped with a microvascular clip. […] The branch vessels were coagulated using an electrocautery pen. A distal end of the external carotid artery was permanently ligated with a 6-0 silk ligature, while the proximal end was looped for later use.
5. Filament insertion: a small incision was made at a ligated distal end of the external carotid artery, and the filament was threaded through the incision and tied with the pre-prepared loop ligature. The incision was cut off, and the filament was adjusted and threaded into the internal carotid artery. […] The ligature was tightened to fix the filament and timing started immediately.
6. After suturing the skin, anesthesia was discontinued. Following 60 minutes of ischemia, the filament was removed to complete cerebral ischemia-reperfusion.
7. Close the incision: the incision was closed using interrupted 4-0 sutures, disinfected with iodophor, and 3 mL of saline was injected intraperitoneally for rehydration. Postoperative analgesia jelly was provided, and the mice were kept warm and monitored continuously until they recover from anesthesia.
C57BL/6J male mice, aged 8 weeks, were acclimatized for 1 week and then randomly assigned to 7 groups. Except for eight mice in the blank control group (i.e., the sham-operated control group), the remaining mice underwent MCAO surgery to induce cerebral ischemia and were randomly divided into 6 groups, including an IR model group, a TAK875 group (12 mice per group), and four LY2922470 groups with different concentrations (8 mice per group). […]

The test system is the same in data set [2]. Conditions: male, C57BL/6J, mouse, in vivo, 5 days.

As to `CC#C[C@@H](CC(=O)O)c1ccc(OCc2ccc(CN3CCCc4cccc(OC)c43)s2)cc1` [LY2922470], the “Infarct area percentage (%) X ± SD” value in data set [1] (LY2922470 10 mg/kg) is given as 26.77 ± 14.54 (*) %; in data set [1] (LY2922470 20 mg/kg) it was 30.55 ± 16.52%; in data set [1] (LY2922470 40 mg/kg) it was 20.4 ± 6.88 (**) %; in data set [1] (LY2922470 80 mg/kg) it was 31.03 ± 17.8%. Further, the “Infarcted area in the brain compared with the IR group mice (in words)” value in data set [1] (LY2922470 10 mg/kg) and in data set [1] (LY2922470 40 mg/kg) was “significantly reduced” in each case. The “Infarcted area compared with the IR group mice (in words)” value in data set [1] (different doses of LY2922470 (10-80 mg/kg)) is “the infarcted area in the mice was reduced; also recorded: significantly decreased”.
Consider `Cc1cc(OCCCS(C)(=O)=O)cc(C)c1-c1cccc(COc2ccc3c(c2)OC[C@H]3CC(=O)O)c1` [TAK875], for which the “Time of death after reperfusion” value in data set [2] amounted to 18 h. Also, the “Deaths after MCAO cerebral ischemia surgery” value in data set [2] (po, 30 mg/kg) is given as “one from the TAK875 group died”. In data set [1] (TAK875 30 mg/kg), the “Infarct area percentage (%) X ± SD” value worked out at 48.9 ± 25.13% and the “Infarcted area compared with the IR group mice (in words)” value is “no significant decrease in the size of the infarcted area”.
